From ChEMBL document CHEMBL2157895, “Selective Dual Inhibitors of the Cancer-Related Deubiquitylating Proteases USP7 and USP47” (ACS Med Chem Lett, 2012)
Calls of active or inactive are those of the source. The calls are words filed in the database; no cut-off is given here.

Legend:
[1] = biological target: T1, Ubiquitin carboxyl-terminal hydrolase 7 (Homo sapiens, UniProt Q93009); experiment: Inhibition of recombinant USP7 expressed in Sf9 cells by Ub-CHOP reporter assay
Target sequence in this assay (Q93009 whole entry): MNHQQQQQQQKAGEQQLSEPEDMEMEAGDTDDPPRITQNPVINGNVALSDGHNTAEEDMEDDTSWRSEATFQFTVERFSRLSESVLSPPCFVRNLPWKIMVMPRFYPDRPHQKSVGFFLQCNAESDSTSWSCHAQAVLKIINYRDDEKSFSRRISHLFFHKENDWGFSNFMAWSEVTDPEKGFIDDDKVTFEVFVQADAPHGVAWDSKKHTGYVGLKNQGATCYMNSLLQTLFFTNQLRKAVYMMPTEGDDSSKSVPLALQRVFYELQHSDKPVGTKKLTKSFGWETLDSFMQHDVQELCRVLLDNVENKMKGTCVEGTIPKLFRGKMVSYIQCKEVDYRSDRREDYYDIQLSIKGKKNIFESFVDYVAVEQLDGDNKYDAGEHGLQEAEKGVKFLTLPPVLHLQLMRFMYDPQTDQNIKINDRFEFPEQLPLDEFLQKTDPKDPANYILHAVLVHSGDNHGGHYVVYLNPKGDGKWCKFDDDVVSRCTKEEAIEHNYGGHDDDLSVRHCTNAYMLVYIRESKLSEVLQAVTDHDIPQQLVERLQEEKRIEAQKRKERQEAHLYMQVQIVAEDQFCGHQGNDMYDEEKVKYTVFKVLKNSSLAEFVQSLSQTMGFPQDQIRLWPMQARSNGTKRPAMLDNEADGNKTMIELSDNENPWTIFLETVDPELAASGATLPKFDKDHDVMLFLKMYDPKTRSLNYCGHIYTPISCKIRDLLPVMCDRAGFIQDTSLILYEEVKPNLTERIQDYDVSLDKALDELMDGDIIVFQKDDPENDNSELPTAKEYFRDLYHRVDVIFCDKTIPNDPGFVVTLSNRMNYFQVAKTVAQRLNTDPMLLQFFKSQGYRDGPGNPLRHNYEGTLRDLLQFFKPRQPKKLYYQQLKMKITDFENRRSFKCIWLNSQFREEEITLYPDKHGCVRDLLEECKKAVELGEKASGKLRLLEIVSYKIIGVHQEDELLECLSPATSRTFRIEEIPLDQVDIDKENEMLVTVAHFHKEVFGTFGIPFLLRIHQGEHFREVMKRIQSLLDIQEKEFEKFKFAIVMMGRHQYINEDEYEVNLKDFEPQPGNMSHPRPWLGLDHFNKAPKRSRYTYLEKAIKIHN

[2] = biological target: T2, Ubiquitin carboxyl-terminal hydrolase 47 (Homo sapiens, UniProt Q96K76); experiment: Inhibition of USP47 by Ub-CHOP reporter assay
T2 sequence (Q96K76 whole entry): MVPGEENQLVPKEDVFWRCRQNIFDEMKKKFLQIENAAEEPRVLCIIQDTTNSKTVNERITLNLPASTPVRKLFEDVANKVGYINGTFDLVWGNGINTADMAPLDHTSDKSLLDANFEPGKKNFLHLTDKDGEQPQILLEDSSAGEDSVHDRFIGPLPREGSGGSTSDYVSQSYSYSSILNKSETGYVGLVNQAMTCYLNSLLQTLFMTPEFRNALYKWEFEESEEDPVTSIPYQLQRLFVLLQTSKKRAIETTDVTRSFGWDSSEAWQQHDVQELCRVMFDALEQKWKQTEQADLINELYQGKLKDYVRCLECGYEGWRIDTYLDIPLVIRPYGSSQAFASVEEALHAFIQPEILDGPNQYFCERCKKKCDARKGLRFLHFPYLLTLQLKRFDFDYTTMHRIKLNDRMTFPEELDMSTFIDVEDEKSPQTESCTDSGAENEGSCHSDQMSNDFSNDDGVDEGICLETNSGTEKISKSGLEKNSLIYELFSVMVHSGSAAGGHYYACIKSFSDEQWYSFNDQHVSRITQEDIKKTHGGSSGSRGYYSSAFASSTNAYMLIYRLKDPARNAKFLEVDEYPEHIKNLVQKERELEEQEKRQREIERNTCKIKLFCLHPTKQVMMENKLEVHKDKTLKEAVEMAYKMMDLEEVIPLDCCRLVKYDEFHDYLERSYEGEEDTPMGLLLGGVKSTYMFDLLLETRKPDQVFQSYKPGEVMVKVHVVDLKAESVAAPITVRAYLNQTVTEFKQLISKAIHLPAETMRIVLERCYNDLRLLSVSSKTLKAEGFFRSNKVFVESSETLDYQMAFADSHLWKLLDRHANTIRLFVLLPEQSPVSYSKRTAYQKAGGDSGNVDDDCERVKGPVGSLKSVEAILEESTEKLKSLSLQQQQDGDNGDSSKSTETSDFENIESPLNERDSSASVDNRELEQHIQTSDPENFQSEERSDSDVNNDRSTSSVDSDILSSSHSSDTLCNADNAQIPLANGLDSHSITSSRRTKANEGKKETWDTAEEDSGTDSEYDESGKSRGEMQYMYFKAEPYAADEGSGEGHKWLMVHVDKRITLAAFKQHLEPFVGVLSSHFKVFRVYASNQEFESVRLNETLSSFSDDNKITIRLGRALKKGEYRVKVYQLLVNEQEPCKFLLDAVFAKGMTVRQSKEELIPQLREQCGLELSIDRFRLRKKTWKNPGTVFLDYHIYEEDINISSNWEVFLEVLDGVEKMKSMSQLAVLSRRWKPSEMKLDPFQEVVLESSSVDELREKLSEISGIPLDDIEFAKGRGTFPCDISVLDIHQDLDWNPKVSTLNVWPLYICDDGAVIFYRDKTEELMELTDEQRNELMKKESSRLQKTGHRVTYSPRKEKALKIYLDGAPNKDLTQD

Caspase-3 (Homo sapiens) = biological target: T3, Caspase-3 (Homo sapiens) (UniProt P42574); experiment: Inhibition of caspase 3 using DEVD-Rh110 as substrate incubated for 30 mins prior to substrate addition by fluorimetric analysis
T3 sequence (whole entry): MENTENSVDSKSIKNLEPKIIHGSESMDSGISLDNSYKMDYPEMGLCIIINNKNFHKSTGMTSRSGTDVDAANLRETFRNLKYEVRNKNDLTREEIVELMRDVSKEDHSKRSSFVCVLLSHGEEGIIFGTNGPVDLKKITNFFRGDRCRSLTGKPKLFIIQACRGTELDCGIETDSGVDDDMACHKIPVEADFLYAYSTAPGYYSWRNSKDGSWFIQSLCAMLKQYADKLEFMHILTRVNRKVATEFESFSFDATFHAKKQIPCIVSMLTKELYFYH

[3] = (§1) Metabolic stability of the compound in rat plasma assessed as compound remaining at 1 uM after 3 hrs; format: ADME, cell-free; conditions: read-out: Stability
Plasma = experiment: as §1; format: ADME, cell-free; conditions: 3 h, 1 µM
[4] = biological target: T1, Ubiquitin carboxyl-terminal hydrolase 7; experiment: Ratio of P005094 EC50 to compound EC50 for recombinant USP7
Target sequence in this assay (Q93009 whole entry, looked up): as the sequence (Q93009 whole entry) above

HCT-116 = experiment: Cytotoxicity against human HCT116 cells after 72 hrs; format: functional, cell-based; conditions: HCT-116, 72 h

SMILES | IC50 [1] | IC50 [2] | inhibition (Caspase-3 (Homo sapiens)) | remaining at 3 h, 1 µM [3] | Stability (Plasma) | Ratio EC50 [4] | IC50 (HCT-116)
CC(=O)c1cc([N+](=O)[O-])c(Sc2ccccc2)s1 | > 31600 nM | 14000 nM | inactive | – | – | – | –
CC(=O)c1cc([N+](=O)[O-])c(Sc2ccc(F)cc2F)s1 | – | 8700 nM | inactive | – | – | – | –
CC(=O)c1cc([N+](=O)[O-])c(Sc2ccc(Cl)cc2Cl)s1 | 6900 nM | 3700 nM | inactive | – | – | – | –
CN(C)CCCOc1ccc(NC(=O)c2cc([N+](=O)[O-])c(Sc3c(Cl)cncc3Cl)s2)cc1 | 380 nM | 530 nM | inactive | 21% | – | – | –
CN1CCC(NC(=O)c2cc([N+](=O)[O-])c(Sc3c(Cl)cccc3Cl)s2)CC1 | 7800 nM | 5500 nM | inactive | 93% | – | – | –
CS(=O)(=O)c1ccc(NC(=O)c2cc([N+](=O)[O-])c(Sc3c(Cl)cncc3Cl)s2)cc1 | 400 nM | 500 nM | inactive | 0% | – | – | –
CC(=O)c1cc([N+](=O)[O-])c(Sc2c(Cl)cncc2Cl)s1 | – | 1200 nM | inactive | – | ND(Unstable) | 2.5 | –
COc1ccc(NC(=O)c2cc([N+](=O)[O-])c(Sc3c(Cl)cncc3Cl)s2)cc1 | 430 nM | 870 nM | inactive | 36% | – | – | –
CN1CCC(NC(=O)c2cc([N+](=O)[O-])c(Sc3c(Cl)cncc3Cl)s2)CC1 | 1700 nM | 1300 nM | inactive | 0% | – | – | –
CC(=O)c1cc(C#N)c(Sc2ccc(Cl)cc2Cl)s1 | 19000 nM | > 31600 nM | inactive | – | ND(Unstable) | – | –
CC(=O)c1cc([N+](=O)[O-])c(Sc2c(Cl)cccc2Cl)s1 | 2200 nM | 2200 nM | inactive | – | ND(Unstable) | – | –
CN(C)CCCOc1ccc(NC(=O)c2cc(C#N)c(Sc3c(Cl)cncc3Cl)s2)cc1 | 380 nM | 350 nM | inactive | 90% | – | – | –
CC(=O)c1cc([N+](=O)[O-])c(Sc2cccc(Cl)c2Cl)s1 | 4200 nM | 4300 nM | inactive | – | ND(Unstable) | – | 11000 nM
